Consider two molecules from patent US20260026501A1, “AGROCHEMICAL COMPOSITION OF SDHI FUNGICIDES” (ADAMA MAKHTESHIM LTD., priority 2022, published 2026).

This data set can be described thus: Concentration of the actives by HPLC after storage (storage stability). Type of data set: physicochemical. The protocol: The assay of the two Ai's was checked by HPLC Method.
The analytical method included: • 1. Preparation of standard solution. • 2. Sample solution preparation: 200 mg sample was measured in triplicates into 50 ml volumetric flask. • 3. Acetonitrile was added. • 4. Injection of the standard and sample solutions in room temperature.
The concentration was calculated by: […]
The samples were checked for assay after 11 days and 14 days at room temperature and at 54° C. The AI % should not decrease more than 5% after the accelerated stability at 54° C.
The samples were checked for assay after 11 days and 14 days at room temperature and at 54° C.
The AI % should not decrease more than 5% after the accelerated stability at 54° C.

Where [1] appears, read: 11 days after EC preparation (54° C.).
Where [2] appears, read: 11 days after EC preparation (r.t).
Setting [3] is: 14 days after EC preparation (54° C.).
The mark [4] stands for this setting: 14 days after EC preparation (r.t).

Consider `OC(Cc1ccccc1Cl)(Cn1nc[nH]c1=S)C1(Cl)CC1` (racemic) [Prothioconazole, 2-[(2RS)-2-(1-chlorocyclopropyl)-3-(2-chlorophenyl)-2-hydroxypropyl]-2H-1,2,4-triazole-3(4H)-thione], for which the “Concentration of the active in formulation A” value by setting is: under setting [1], 14900 µg/mL; under setting [2], 15100 µg/mL; under setting [3], 14700 µg/mL; under setting [4], 14800 µg/mL; (after EC preparation) 15200 µg/mL. The “Concentration of the active in formulation B” value reads like this: (after 14 days (54° C.)) 14700 µg/mL; (after 14 days (r.t)) 14500 µg/mL; (after EC preparation) 15300 µg/mL.

With `Cn1cc(C(=O)Nc2ccccc2-c2cc(F)c(F)c(F)c2)c(C(F)F)n1` [Fluxapyroxad, 3-(difluoromethyl)-1-methyl-N-(3′,4′,5′-trifluorobiphenyl-2-yl)pyrazole-4-carboxamide], the “Concentration of the active in formulation A” value by setting is: under setting [1], 7500 µg/mL; under setting [2], 7500 µg/mL; under setting [3], 7500 µg/mL; under setting [4], 7400 µg/mL; (after EC preparation) 7500 µg/mL. Moreover, the “Concentration of the active in formulation B” value reads like this: (after 14 days (54° C.)) 9000 µg/mL; (after 14 days (r.t)) 8800 µg/mL; (after EC preparation) 8900 µg/mL.
